Test results: ChEMBL document CHEMBL5678818, “Discovery of potent SOS1 inhibitors that block RAS activation via disruption of the RAS-SOS1 interaction” (Proc Natl Acad Sci U S A, 2019)

Key:
[1] = target: Serine/threonine-protein kinase RIO2 (Homo sapiens) (UniProt Q9BVS4); assay: Inhibition of RIOK2 (unknown origin) assessed as residual activity at 1000 nM by KINOMEscan analysis relative to control
[2] = target: T1, Serine/threonine-protein kinase TAO3 (Homo sapiens) (UniProt Q9H2K8); assay: Inhibition of TAOK3 (unknown origin) assessed as residual activity at 1000 nM by KINOMEscan analysis relative to control
T1 sequence (whole entry): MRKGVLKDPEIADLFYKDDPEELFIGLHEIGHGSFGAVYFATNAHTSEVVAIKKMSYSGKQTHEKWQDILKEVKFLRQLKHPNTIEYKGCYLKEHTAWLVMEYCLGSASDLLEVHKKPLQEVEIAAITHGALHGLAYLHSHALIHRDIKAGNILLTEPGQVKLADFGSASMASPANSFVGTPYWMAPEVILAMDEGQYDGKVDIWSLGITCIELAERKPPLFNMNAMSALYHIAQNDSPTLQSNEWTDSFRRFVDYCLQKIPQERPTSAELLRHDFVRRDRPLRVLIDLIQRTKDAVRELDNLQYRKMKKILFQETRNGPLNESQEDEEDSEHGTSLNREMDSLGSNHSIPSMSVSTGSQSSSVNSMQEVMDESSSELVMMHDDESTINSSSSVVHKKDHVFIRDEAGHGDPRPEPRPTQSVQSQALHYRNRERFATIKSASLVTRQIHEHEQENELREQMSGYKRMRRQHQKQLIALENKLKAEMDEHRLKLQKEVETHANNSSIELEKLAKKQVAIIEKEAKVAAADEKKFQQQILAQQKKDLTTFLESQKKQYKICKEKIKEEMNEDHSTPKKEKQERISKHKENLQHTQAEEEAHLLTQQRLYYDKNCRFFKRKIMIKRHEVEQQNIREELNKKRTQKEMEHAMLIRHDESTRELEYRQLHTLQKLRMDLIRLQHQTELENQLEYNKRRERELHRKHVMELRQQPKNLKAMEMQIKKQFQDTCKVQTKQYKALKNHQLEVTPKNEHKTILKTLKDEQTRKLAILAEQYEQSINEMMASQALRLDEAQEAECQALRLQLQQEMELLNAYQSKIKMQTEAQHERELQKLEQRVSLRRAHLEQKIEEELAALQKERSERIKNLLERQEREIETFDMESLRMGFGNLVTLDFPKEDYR

[3] = target: Myosin light chain kinase, smooth muscle (Homo sapiens) (UniProt Q15746); assay: Inhibition of MLCK (unknown origin) assessed as residual activity at 1000 nM by KINOMEscan analysis relative to control
[4] = target: T2, Inhibitor of nuclear factor kappa-B kinase subunit beta (Homo sapiens) (UniProt O14920); assay: Inhibition of IKK-beta (unknown origin) assessed as residual activity at 1000 nM by KINOMEscan analysis relative to control
T2 sequence (whole entry): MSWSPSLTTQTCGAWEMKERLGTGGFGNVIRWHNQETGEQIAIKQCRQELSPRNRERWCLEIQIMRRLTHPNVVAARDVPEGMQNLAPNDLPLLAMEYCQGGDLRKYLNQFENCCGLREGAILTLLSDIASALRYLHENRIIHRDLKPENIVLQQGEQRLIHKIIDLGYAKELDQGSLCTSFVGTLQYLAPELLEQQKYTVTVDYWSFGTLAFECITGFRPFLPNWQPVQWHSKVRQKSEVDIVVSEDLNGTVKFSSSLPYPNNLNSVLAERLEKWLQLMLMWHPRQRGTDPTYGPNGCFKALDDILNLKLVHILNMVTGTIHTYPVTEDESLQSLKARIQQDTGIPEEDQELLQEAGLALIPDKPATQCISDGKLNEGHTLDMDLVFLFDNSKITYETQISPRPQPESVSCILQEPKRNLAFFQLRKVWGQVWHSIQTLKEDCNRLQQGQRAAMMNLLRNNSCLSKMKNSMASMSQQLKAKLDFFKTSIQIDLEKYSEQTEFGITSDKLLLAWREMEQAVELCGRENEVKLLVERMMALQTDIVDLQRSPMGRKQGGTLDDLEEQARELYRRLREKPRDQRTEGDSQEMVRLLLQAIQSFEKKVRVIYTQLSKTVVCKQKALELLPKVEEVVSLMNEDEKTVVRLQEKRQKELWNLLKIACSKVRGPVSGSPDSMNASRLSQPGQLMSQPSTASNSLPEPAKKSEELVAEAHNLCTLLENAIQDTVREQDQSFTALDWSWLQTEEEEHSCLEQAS

[5] = target: Activin receptor type-2A (Homo sapiens) (UniProt P27037); assay: Inhibition of ACVR2A (unknown origin) assessed as residual activity at 1000 nM by KINOMEscan analysis relative to control
Chain of Activin receptor type-2A (Homo sapiens) (P27037 whole entry): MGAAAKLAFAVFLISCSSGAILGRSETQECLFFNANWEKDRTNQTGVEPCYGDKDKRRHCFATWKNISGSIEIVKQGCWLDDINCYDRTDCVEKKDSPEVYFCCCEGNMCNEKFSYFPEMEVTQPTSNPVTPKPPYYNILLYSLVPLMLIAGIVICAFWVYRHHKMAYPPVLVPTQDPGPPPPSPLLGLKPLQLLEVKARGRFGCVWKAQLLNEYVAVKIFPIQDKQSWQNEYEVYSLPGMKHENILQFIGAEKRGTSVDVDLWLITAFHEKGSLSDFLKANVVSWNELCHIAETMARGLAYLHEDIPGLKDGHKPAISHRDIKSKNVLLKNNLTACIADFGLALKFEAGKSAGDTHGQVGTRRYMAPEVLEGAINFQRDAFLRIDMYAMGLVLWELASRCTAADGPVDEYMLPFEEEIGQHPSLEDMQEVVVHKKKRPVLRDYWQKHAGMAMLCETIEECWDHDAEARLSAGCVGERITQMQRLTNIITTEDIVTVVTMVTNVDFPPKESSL

[6] = test system: Hepatocyte growth factor receptor (Homo sapiens), P08581 [Y1235D]; assay: Inhibition of MET Y1235D mutant (unknown origin) assessed as residual activity at 1000 nM by KINOMEscan analysis relative to control
[7] = target: Tyrosine-protein kinase JAK1 (Homo sapiens) (UniProt P23458); assay: Inhibition of JAK1 JH2 pseudokinase domain (unknown origin) assessed as residual activity at 1000 nM by KINOMEscan analysis relative to control
Chain of Tyrosine-protein kinase JAK1 (Homo sapiens) (P23458 whole entry, the tested form may be a part): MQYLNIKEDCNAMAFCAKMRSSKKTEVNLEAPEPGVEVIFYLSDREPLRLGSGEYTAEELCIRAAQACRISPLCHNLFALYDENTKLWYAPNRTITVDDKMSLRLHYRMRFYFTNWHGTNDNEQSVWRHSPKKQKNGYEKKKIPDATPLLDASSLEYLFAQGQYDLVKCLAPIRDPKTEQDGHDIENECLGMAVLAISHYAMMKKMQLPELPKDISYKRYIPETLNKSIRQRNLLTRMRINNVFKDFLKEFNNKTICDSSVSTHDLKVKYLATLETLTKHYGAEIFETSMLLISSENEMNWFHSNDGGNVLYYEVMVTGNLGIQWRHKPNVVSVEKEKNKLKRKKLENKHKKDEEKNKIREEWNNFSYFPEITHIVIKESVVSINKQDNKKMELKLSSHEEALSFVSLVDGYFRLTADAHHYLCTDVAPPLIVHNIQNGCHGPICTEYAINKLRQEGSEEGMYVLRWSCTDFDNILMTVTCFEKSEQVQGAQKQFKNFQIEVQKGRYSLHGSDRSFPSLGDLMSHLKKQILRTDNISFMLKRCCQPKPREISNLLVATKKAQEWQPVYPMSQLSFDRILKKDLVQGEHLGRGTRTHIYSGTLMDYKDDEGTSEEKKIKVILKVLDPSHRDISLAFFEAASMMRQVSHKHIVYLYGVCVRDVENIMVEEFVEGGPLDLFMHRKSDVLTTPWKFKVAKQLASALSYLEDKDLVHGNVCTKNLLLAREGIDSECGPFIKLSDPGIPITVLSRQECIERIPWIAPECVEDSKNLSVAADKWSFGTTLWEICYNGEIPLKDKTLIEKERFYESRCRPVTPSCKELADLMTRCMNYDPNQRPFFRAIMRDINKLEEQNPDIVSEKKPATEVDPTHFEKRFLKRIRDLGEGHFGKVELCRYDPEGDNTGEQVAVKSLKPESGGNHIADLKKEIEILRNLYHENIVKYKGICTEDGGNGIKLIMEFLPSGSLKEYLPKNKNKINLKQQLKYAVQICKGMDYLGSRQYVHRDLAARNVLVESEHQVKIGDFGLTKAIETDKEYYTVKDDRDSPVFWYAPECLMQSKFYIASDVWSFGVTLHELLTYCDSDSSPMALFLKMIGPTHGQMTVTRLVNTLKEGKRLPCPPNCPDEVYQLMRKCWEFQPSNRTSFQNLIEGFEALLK

[8] = target: High affinity nerve growth factor receptor (Homo sapiens) (UniProt P04629); assay: Inhibition of TRKA (unknown origin) assessed as residual activity at 1000 nM by KINOMEscan analysis relative to control
Chain of High affinity nerve growth factor receptor (Homo sapiens) (P04629 33-796 limits assumed): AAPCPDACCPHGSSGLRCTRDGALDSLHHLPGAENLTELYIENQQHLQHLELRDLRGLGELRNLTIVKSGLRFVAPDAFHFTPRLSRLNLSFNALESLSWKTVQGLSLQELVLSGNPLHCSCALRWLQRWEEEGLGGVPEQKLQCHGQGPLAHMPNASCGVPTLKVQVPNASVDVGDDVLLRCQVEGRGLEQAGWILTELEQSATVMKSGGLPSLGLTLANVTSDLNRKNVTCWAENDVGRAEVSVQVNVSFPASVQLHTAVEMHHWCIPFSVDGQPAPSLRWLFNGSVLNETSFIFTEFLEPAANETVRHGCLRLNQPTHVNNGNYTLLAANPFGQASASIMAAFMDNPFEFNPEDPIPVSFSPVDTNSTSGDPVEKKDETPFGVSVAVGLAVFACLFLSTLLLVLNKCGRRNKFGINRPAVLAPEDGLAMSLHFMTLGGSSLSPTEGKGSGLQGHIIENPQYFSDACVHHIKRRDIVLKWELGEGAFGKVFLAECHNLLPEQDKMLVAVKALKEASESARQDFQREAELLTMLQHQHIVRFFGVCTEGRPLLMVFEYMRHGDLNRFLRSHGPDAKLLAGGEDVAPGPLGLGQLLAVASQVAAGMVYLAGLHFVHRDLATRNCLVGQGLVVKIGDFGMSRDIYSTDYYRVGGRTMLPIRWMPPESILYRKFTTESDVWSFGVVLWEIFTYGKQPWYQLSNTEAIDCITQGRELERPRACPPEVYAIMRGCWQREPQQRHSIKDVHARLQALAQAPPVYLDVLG

[9] = target: Macrophage-stimulating protein receptor (Homo sapiens) (UniProt Q04912); assay: Inhibition of MST1R (unknown origin) assessed as residual activity at 1000 nM by KINOMEscan analysis relative to control
Chain of Macrophage-stimulating protein receptor (Homo sapiens) (Q04912 25-304 limits assumed): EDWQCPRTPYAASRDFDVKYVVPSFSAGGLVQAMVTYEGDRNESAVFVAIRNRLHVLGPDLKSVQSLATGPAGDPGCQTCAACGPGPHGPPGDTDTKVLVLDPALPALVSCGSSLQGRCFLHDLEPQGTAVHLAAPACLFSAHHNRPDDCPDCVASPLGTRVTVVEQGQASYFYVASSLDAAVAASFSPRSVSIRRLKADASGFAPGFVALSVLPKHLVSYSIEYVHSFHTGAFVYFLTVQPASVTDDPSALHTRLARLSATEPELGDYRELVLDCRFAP
Chain of Macrophage-stimulating protein receptor (Homo sapiens) (Q04912 310-1400 limits assumed): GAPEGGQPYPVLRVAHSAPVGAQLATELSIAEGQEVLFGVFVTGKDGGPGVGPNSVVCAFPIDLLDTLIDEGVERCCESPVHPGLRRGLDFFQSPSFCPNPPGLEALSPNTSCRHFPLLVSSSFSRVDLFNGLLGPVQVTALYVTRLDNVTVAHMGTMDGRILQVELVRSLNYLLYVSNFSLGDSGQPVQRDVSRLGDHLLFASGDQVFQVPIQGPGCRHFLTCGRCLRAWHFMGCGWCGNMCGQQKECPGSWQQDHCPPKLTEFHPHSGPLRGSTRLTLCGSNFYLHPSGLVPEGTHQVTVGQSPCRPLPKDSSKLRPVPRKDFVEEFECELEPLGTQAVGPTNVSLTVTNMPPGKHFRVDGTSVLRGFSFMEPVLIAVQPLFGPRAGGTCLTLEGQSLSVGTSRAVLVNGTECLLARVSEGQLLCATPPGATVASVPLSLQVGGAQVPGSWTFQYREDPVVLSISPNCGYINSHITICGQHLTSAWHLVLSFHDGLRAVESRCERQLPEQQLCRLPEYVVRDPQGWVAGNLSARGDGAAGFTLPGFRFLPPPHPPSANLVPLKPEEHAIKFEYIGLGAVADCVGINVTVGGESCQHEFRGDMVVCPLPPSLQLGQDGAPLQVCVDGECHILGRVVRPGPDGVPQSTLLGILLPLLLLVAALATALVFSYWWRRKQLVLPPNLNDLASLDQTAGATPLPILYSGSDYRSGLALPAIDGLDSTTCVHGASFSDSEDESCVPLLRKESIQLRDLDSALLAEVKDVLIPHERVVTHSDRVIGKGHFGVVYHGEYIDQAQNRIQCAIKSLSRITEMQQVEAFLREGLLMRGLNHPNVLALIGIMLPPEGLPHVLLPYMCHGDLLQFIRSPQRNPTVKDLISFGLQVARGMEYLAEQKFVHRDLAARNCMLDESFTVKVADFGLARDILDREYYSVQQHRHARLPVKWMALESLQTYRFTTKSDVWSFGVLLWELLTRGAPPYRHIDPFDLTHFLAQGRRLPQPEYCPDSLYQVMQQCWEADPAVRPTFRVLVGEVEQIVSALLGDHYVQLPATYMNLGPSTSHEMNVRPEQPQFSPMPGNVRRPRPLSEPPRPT

Chain of Serine/threonine-protein kinase RIO2 (Homo sapiens) (Q9BVS4 whole entry, looked up): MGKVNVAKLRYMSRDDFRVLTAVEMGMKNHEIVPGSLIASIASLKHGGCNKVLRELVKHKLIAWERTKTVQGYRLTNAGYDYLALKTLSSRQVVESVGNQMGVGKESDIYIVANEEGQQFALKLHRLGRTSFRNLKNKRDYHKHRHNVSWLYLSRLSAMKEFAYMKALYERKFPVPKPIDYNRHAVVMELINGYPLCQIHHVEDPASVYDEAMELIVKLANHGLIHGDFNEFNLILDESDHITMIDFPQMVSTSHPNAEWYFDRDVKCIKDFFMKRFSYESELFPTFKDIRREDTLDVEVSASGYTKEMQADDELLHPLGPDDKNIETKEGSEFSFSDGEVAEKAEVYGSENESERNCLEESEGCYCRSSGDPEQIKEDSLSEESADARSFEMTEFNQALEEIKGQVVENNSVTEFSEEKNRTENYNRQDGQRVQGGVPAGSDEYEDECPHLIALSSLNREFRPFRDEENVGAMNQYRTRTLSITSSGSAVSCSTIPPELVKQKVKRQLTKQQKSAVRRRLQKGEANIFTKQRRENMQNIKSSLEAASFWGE

| Compound | Activity [1] [%] | Activity [2] [%] | Activity [3] [%] | Activity [4] [%] | Activity [5] [%] | Activity [6] [%] | Activity [7] [%] | Activity [8] [%] | Activity [9] [%] |
| --- | --- | --- | --- | --- | --- | --- | --- | --- | --- |
| COc1cc2nc(C)nc(N[C@H](C)c3cccc(-c4cn[nH]c4)c3)c2cc1OC | 61 | 100 | 100 | 73 | 90 | 78 | 78 | 99 | 75 |
| COc1cc2ncnc(N[C@H](C)c3cccc4ccccc34)c2cc1OC | 82 | 79 | 100 | 82 | 100 | 100 | 100 | 97 | 100 |
